Laboratory results reported in ChEMBL document CHEMBL3286154, “Oxabicyclooctane-linked novel bacterial topoisomerase inhibitors as broad spectrum antibacterial agents” (ACS Med Chem Lett, 2014).
pIC50: −log10 of the molar value. Active and inactive are the calls of the source. The calls are words filed in the database; no cut-off is given here.

What was measured:
Streptococcus pneumoniae = assay: Antibacterial activity against Streptococcus pneumoniae; type: functional
[1] = Plasma clearance in C57BL/6 mouse at 1 mg/kg, iv and 2 mg/kg, po; type: ADME, organism-based
[2] = Unbound fraction in dog plasma; type: ADME, cell-free, Canis lupus familiaris
Pseudomonas aeruginosa = assay: Antibacterial activity against Pseudomonas aeruginosa; type: functional
Staphylococcus aureus [3] = assay: Antibacterial activity against Staphylococcus aureus in presence of 50% human serum; type: functional, organism-based
Acinetobacter baumannii = assay: Antibacterial activity against Acinetobacter baumannii; type: functional
Enterococcus faecalis = assay: Antibacterial activity against Enterococcus faecalis; type: functional
Staphylococcus aureus [4] = assay: Antibacterial activity against methicillin-resistant Staphylococcus aureus; type: functional
Staphylococcus aureus [5] = assay: Antibacterial activity against Staphylococcus aureus infected in po dosed ICR mouse assessed as increase in mouse survival after 7 days; type: functional; conditions: 168 h
[6] = Oral bioavailability in C57BL/6 mouse at 2 mg/kg; type: ADME, organism-based; conditions: in vivo
Staphylococcus aureus [7] = assay: Antibacterial activity against quinolone-sensitive Staphylococcus aureus; type: functional
Liver = assay: Metabolic stability in mouse liver microsomes after 30 to 60 mins; type: ADME
Liver microsome [8] = assay: Metabolic stability in human liver microsomes after 30 to 60 mins; type: ADME
Liver microsome [9] = assay: Metabolic stability in dog liver microsomes after 30 to 60 mins; type: ADME, Canis lupus familiaris
Enterococcus faecium = assay: Antibacterial activity against vancomycin-resistant Enterococcus faecium; type: functional
[10] = Half life in C57BL/6 mouse at 1 mg/kg, iv and 2 mg/kg, po; type: ADME, organism-based; conditions: in vivo
Escherichia coli [11] = assay: Antibacterial activity against Escherichia coli; type: functional
Staphylococcus aureus [12] = assay: Antibacterial activity against Staphylococcus aureus infected in iv dosed ICR mouse assessed as increase in mouse survival after 7 days; type: functional; conditions: 168 h
Mus musculus = assay: Dose normalized AUC in C57BL/6 mouse at 1 mg/kg, iv and 2 mg/kg, po; type: ADME, organism-based; conditions: in vivo
[13] = Volume of distribution at steady state in C57BL/6 mouse at 1 mg/kg, iv and 2 mg/kg, po; type: ADME, organism-based; conditions: in vivo, read-out: Vdss
[14] = Unbound fraction in mouse plasma; type: ADME, cell-free
Staphylococcus aureus [15] = assay: Antibacterial activity against methicillin-sensitive Staphylococcus aureus; type: functional
[16] = Unbound fraction in human plasma; type: ADME, cell-free
Staphylococcus aureus [17] = assay: Antibacterial activity against Staphylococcus aureus in presence of 500 ug/ml sheared DNA; type: functional, organism-based
Staphylococcus aureus [18] = assay: Antibacterial activity against quinolone-resistant Staphylococcus aureus; type: functional
Haemophilus influenzae = assay: Antibacterial activity against Haemophilus influenzae; type: functional
[19] = Solubility of the compound in PBS at pH 7; type: physicochemical
[20] = Half life in beagle dog at 1 mg/kg, iv and 2 mg/kg, po; type: ADME, organism-based, Canis lupus familiaris; conditions: in vivo
[21] = Plasma clearance in beagle dog at 1 mg/kg, iv and 2 mg/kg, po; type: ADME, organism-based, Canis lupus familiaris
[22] = Solubility of the compound in PBS at pH 2; type: physicochemical
Staphylococcus aureus [23] = assay: Inhibition of DNA synthesis in Staphylococcus aureus using radioligand at 0.001 to 1 ug/ml by scintillation counting
[24] = Inhibition of Escherichia coli topoisomerase 4
[25] = Inhibition of Escherichia coli gyrase
Canis familiaris = assay: Dose normalized AUC in beagle dog at 1 mg/kg, iv and 2 mg/kg, po; type: ADME, organism-based, Canis lupus familiaris; conditions: in vivo
DNA gyrase = DNA gyrase (Staphylococcus aureus, UniProt P0A0K8+P20831); assay: Inhibition of Staphylococcus aureus DNA gyrase; type: protein-complex assay
[26] = Oral bioavailability in beagle dog at 2 mg/kg; type: ADME, organism-based, Canis lupus familiaris; conditions: in vivo
[27] = Inhibition of Staphylococcus aureus DNA topoisomerase 4
[28] = Volume of distribution at steady state in beagle dog at 1 mg/kg, iv and 2 mg/kg, po; type: ADME, organism-based, Canis lupus familiaris; conditions: in vivo, read-out: Vdss
Escherichia coli [29] = assay: Antibacterial activity against Escherichia coli infected in po dosed ICR mouse assessed as increase in mouse survival after 7 days; type: functional; conditions: 168 h
Staphylococcus aureus [30] = assay: Antibacterial activity against Staphylococcus aureus ATCC 29213 assessed as reduction of colony forming units using > 10^5 CFU/ml inoculum at 0.06 to 0.12 ug/ml by time kill experiment; type: functional
Escherichia coli [31] = assay: Antibacterial activity against Escherichia coli infected in iv dosed ICR mouse assessed as increase in mouse survival after 7 days; type: functional; conditions: 168 h
Moraxella catarrhalis = assay: Antibacterial activity against Moraxella catarrhalis; type: functional

DNA gyrase, sequence (P0A0K8 whole entry): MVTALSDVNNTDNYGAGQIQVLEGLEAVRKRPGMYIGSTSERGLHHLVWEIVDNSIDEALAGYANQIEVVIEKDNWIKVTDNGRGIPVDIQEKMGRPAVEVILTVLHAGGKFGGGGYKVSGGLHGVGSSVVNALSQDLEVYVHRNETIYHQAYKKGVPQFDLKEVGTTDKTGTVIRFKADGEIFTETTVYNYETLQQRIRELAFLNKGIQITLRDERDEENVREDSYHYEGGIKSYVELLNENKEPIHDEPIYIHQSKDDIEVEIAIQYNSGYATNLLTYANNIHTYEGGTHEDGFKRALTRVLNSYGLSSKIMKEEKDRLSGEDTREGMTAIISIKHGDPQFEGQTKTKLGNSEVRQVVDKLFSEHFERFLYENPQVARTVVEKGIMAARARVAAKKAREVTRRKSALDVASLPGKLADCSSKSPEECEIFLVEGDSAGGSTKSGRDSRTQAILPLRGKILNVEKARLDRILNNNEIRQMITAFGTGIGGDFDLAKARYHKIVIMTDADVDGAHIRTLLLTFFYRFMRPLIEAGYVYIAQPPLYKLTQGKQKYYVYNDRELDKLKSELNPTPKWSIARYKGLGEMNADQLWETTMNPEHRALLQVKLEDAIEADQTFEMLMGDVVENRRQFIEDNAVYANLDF
DNA gyrase, sequence (P20831 whole entry): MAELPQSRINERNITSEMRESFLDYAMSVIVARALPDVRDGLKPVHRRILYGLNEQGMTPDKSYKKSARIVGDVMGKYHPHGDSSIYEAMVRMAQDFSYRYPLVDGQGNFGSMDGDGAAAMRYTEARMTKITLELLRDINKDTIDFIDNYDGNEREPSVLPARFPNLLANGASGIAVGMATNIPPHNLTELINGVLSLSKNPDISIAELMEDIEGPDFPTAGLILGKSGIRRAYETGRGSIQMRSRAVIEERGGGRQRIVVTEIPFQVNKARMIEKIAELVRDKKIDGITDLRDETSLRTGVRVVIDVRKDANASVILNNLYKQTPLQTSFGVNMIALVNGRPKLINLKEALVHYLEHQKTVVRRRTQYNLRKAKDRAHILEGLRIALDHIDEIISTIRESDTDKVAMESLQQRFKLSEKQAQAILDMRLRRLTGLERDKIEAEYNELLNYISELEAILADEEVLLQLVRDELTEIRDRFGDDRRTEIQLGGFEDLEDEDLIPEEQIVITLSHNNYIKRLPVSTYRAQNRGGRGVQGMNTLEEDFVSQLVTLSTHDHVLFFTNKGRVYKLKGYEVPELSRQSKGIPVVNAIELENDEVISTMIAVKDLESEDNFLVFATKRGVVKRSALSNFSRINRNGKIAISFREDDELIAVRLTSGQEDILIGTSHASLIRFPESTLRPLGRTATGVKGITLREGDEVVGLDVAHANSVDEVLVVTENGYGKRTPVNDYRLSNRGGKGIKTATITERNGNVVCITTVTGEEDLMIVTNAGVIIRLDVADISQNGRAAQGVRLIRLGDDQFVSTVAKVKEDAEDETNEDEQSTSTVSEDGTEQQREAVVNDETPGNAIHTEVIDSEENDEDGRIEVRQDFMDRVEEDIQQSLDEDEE

## COc1ccc2ncc(F)c(C[C@@H](O)C34CCC(NCc5ccc6c(n5)NC(=O)CO6)(CC3)CO4)c2n1.Cl
Streptococcus pneumoniae
  MIC: 0.25 µg/mL
[1]
  clearance: 48.7 mL/min/kg
[2]
  fraction unbound: > 0.25
Pseudomonas aeruginosa
  MIC: 8 µg/mL
Staphylococcus aureus [3]
  Activity: Active
Acinetobacter baumannii
  MIC: 1 µg/mL
Enterococcus faecalis
  MIC: 1 µg/mL
Staphylococcus aureus [4]
  MIC: 0.5 µg/mL
Staphylococcus aureus [5]
  ED50: 4.5 mg/kg
[6]
  bioavailability: 25.3%
Staphylococcus aureus [7]
  MIC: 0.06 µg/mL
Liver
  Stability: Stable
Liver microsome [8]
  Stability: Stable
Liver microsome [9]
  Stability: Stable
Enterococcus faecium
  MIC: 2 µg/mL
[10]
  half-life: 129 min
Escherichia coli [11]
  MIC: 4 µg/mL
Staphylococcus aureus [12]
  ED50: 3.5 mg/kg
Mus musculus
  AUC/dose: 0.68 µM·h/mpk
[13]
  Vd: 4.94 L/kg
[14]
  fraction unbound: > 0.25
Staphylococcus aureus [15]
  MIC: 0.06 µg/mL
[16]
  fraction unbound: > 0.25
Staphylococcus aureus [17]
  Activity: Active
Staphylococcus aureus [18]
  MIC: 0.5 µg/mL

## COc1ccc2ncc(F)c(CCC34CCC(NCc5ccc6c(n5)NC(=O)CO6)(CC3)CO4)c2n1.Cl
Streptococcus pneumoniae
  MIC: 0.064 µg/mL
[1]
  clearance: 34.6 mL/min/kg
[2]
  fraction unbound: < 0.02
Haemophilus influenzae
  MIC: 1 µg/mL
[19]
  solubility: < 0.89 µM
Pseudomonas aeruginosa
  MIC: 4 µg/mL
Staphylococcus aureus [3]
  Activity: inactive
Acinetobacter baumannii
  MIC: 0.5 µg/mL
Enterococcus faecalis
  MIC: 1 µg/mL
[20]
  half-life: 111 min
Staphylococcus aureus [4]
  MIC: 0.008 µg/mL
Staphylococcus aureus [5]
  ED50: 17 mg/kg
[6]
  bioavailability: 71.6%
Staphylococcus aureus [7]
  MIC: 0.016 µg/mL
[21]
  clearance: 39.8 mL/min/kg
Liver
  Stability: Stable
[22]
  solubility: 20.3 µM
Liver microsome [8]
  Stability: Stable
Liver microsome [9]
  Stability: Stable
Staphylococcus aureus [23]
  inhibition: Active
[24]
  pIC50: 6.70
Enterococcus faecium
  MIC: 0.5 µg/mL
[25]
  pIC50: 6.74
[10]
  half-life: 134 min
Canis familiaris
  AUC/dose: 0.43 µM·h
DNA gyrase
  pIC50: 6.66
Escherichia coli [11]
  MIC: 1 µg/mL
Staphylococcus aureus [12]
  ED50: 5.5 mg/kg
Mus musculus
  AUC/dose: 0.98 µM·h/mpk
[13]
  Vd: 2.22 L/kg
[14]
  fraction unbound: < 0.02
[26]
  bioavailability: > 100%
[27]
  pIC50: 5.36
Staphylococcus aureus [15]
  MIC: 0.016 µg/mL
[16]
  fraction unbound: < 0.02
[28]
  Vd: 5.36 L/kg
Staphylococcus aureus [17]
  Activity: inactive
Staphylococcus aureus [18]
  MIC: 0.064 µg/mL

## COc1ccc2ncc(F)c(C[C@H](O)C34CCC(NCc5ccc6c(n5)NC(=O)CO6)(CC3)CO4)c2n1.Cl
Streptococcus pneumoniae
  MIC: 0.05 µg/mL
Escherichia coli [29]
  ED50: 85 mg/kg
[1]
  clearance: 43.3 mL/min/kg
[2]
  fraction unbound: > 0.25
Haemophilus influenzae
  MIC: 0.5 µg/mL
[19]
  solubility: 154 µM
Pseudomonas aeruginosa
  MIC: 8 µg/mL
Staphylococcus aureus [3]
  Activity: Active
Acinetobacter baumannii
  MIC: 0.5 µg/mL
Enterococcus faecalis
  MIC: 0.5 µg/mL
[20]
  half-life: 269 min
Staphylococcus aureus [4]
  MIC: 0.06 µg/mL
Staphylococcus aureus [5]
  ED50: 2.2 mg/kg
Staphylococcus aureus [30]
  log10cfu: >3
[6]
  bioavailability: 30.1%
Escherichia coli [31]
  ED50: 23 mg/kg
Staphylococcus aureus [7]
  MIC: 0.06 µg/mL
[21]
  clearance: 9.16 mL/min/kg
Liver
  Stability: Stable
[22]
  solubility: 200 µM
Moraxella catarrhalis
  MIC: 0.015 µg/mL
Liver microsome [8]
  Stability: Stable
Liver microsome [9]
  Stability: Stable
[24]
  pIC50: 6.30
Enterococcus faecium
  MIC: 0.5 µg/mL
[25]
  pIC50: 6.11
[10]
  half-life: 102 min
Canis familiaris
  AUC/dose: 3.57 µM·h
DNA gyrase
  pIC50: 5.99
Escherichia coli [11]
  MIC: 2 µg/mL
Staphylococcus aureus [12]
  ED50: 2.5 mg/kg
Mus musculus
  AUC/dose: 0.76 µM·h/mpk
[13]
  Vd: 1.61 L/kg
[14]
  fraction unbound: > 0.25
[26]
  bioavailability: 40.4%
[27]
  pIC50: 4.98
Staphylococcus aureus [15]
  MIC: 0.02 µg/mL
[16]
  fraction unbound: > 0.25
[28]
  Vd: 2.6 L/kg
Staphylococcus aureus [17]
  Activity: Active
Staphylococcus aureus [18]
  MIC: 0.25 µg/mL
